# From patent US7544701B2, “Sulfonyldihydrobenzimidazolone compounds as 5-hydroxytryptamine-6 ligands” (Wyeth, priority 2003, dated 2009)
# pKi: −log10 of the molar value.
# Biological target: T1, human cloned 5-HT6 receptors (Homo sapiens, UniProt P50406)
# T1 construct: expressed in transfected cells; host or cells: Hela cells
# Assay: 5-HT6 binding affinity ([3H]-LSD displacement, membranes of Hela cells expressing human cloned 5-HT6 receptors)
# Settings: [3H]-LSD 3.0 nM, 120 min, room temperature, Hela cell membranes
# Experimental: The affinity of test compounds for the serotonin 5-HT6 receptor is evaluated in the following manner. Cultured Hela cells expressing human cloned 5-HT6 receptors are harvested and centrifuged at low speed (1,000×g) for 10.0 min to remove the culture media. The harvested cells are suspended in half volume of fresh physiological phosphate buffered saline solution and recentrifuged at the same speed. This operation is repeated. The collected cells are then homogenized in ten volumes of 50 mM Tris.HCl (pH 7.4) and 0.5 mM EDTA. The homogenate is centrifuged at 40,000×g for 30.0 min and the precipitate is collected. The obtained pellet is resuspended in 10 volumes of Tris.HCl buffer and recentrifuged at the same speed. The final pellet is suspended in a small volume of Tris.HCl buffer and the tissue protein content is determined in aliquots of 10-25 μl volumes. Bovine Serum Albumin is used as the standard in the protein determination according to the method described in Lowry et al., J. Biol. Chem., 193:265 (1951). The volume of the suspended cell membranes is adjusted to give a tissue protein concentration of 1.0 mg/ml of suspension. The prepared membrane suspension (10 times concentrated) is aliquoted in 1.0 ml volumes and stored at −70° C. until used in subsequent binding experiments.
# Binding experiments are performed in a 96 well microtiter plate format, in a total volume of 200 μl. […] The test compounds are added in 20.0 μl volume.
# The reaction is allowed to proceed in the dark for 120 min at room temperature, at which time, the bound ligand-receptor complex is filtered off on a 96 well unifilter with a Packard Filtermate® 196 Harvester. The bound complex caught on the filter disk is allowed to air dry and the radioactivity is measured in a Packard TopCount® equipped with six photomultiplier detectors, after the addition of 40.0 μl Microscint®-20 scintillant to each shallow well. The unifilter plate is heat-sealed and counted in a PackardTopCount® with a tritium efficiency of 31.0%.
# Binding in the presence of varying concentrations of test compound is expressed as a percentage of specific binding in the absence of test compound. The results are plotted as log % bound versus log concentration of test compound. […] A linear regression line of data points is plotted, from which the IC50 value is determined and the Ki value is determined based upon the following equation: Ki=IC50/(1+L/KD) where L is the concentration of the radioactive ligand used and KD is the dissociation constant of the ligand for the receptor, both expressed in nM.
# T1 sequence (P50406 whole entry): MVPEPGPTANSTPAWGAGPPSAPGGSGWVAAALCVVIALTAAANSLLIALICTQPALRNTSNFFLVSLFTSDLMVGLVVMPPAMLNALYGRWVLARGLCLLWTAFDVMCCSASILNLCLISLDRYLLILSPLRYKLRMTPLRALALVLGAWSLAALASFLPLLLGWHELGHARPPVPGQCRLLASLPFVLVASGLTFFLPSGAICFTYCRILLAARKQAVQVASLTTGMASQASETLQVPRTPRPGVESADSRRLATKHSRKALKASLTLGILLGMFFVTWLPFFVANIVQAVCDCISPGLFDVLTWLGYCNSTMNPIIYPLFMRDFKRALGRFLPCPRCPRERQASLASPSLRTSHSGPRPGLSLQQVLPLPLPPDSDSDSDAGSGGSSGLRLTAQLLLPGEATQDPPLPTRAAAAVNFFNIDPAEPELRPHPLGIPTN
row,Structure (SMILES),pKi
1,"O=c1n(C2CCNCC2)c2ccccc2n1S(=O)(=O)c1c(Cl)sc(Cl)c1Br [Example 30, 1-[(4-bromo-2,5-dichlorothien-3-yl)sulfonyl]-3-piperidin-4-yl-1,3-dihydro-2H-benzimidazol-2-one]",7.38
2,"Cc1c(S(=O)(=O)n2c(=O)n(C3CCNCC3)c3ccccc32)sc2ccc(Cl)cc12 [Example 31, 1-[(5-chloro-3-methyl-1-benzothien-2-yl)sulfonyl]-3-piperidin-4-yl-1,3-dihydro-2H-benzimidazol-2-one]",7.10
3,"O=c1n(C2CCNCC2)c2ccccc2n1S(=O)(=O)c1c(Cl)nc2ccccn12 [Example 34, 1-[(2-chloroimidazo[1,2-a]pyridin-3-yl)sulfonyl]-3-piperidin-4-yl-1,3-dihydro-2H-benzimidazol-2-one]",7.11
4,"O=c1n(C2=CCNCC2)c2ccccc2n1S(=O)(=O)c1ccc2ccccc2c1 [Example 39, 1-(2-naphthylsulfonyl)-3-(1,2,3,6-tetrahydropyridin-4-yl)-1,3-dihydro-2H-benzimidazol-2-one]",8.22
5,"O=c1n(C2=CCNCC2)c2ccccc2n1S(=O)(=O)c1ccc(Br)s1 [Example 41, 1-[(5-bromothien-2-yl)sulfonyl]-3-(1,2,3,6-tetrahydropyridin-4-yl)-1,3-dihydro-2H-benzimidazol-2-one]",8.40
6,"O=c1n(C2=CCNCC2)c2ccccc2n1S(=O)(=O)c1cc(Cl)sc1Cl [Example 43, 1-[(2,5-dichlorothien-3-yl)sulfonyl]-3-(1,2,3,6-tetrahydropyridin-4-yl)-1,3-dihydro-2H-benzimidazol-2-one]",8.05
7,"O=c1n(C2=CCNCC2)c2ccccc2n1S(=O)(=O)c1sc(Cl)cc1Br [Example 45, 1-[(3-bromo-5-chlorothien-2-yl)sulfonyl]-3-(1,2,3,6-tetrahydropyridin-4-yl)-1,3-dihydro-2H-benzimidazol-2-one]",8.00
8,"O=c1n(C2=CCNCC2)c2ccccc2n1S(=O)(=O)c1cc(Br)c(Cl)s1 [Example 46, 1-[(4-bromo-5-chlorothien-2-yl)sulfonyl]-3-(1,2,3,6-tetrahydropyridin-4-yl)-1,3-dihydro-2H-benzimidazol-2-one]",8.05
9,"O=c1n(C2=CCNCC2)c2ccccc2n1S(=O)(=O)c1c(Cl)nc2sccn12 [Example 49, 1-[(6-chloroimidazo[2,1-b][1,3]thiazol-5-yl)sulfonyl]-3-(1,2,3,6-tetrahydropyridin-4-yl)-1,3-dihydro-2H-benzimidazol-2-one]",8.70
10,"Cc1nc(S(=O)(=O)n2c(=O)n(C3=CCNCC3)c3ccccc32)cn1C [Example 52, 1-[(1,2-dimethyl-1H-imidazol-4-yl)sulfonyl]-3-(1,2,3,6-tetrahydropyridin-4-yl)-1,3-dihydro-2H-benzimidazol-2-one]",6.88
11,"Cc1nn(C)c(Cl)c1S(=O)(=O)n1c(=O)n(C2=CCNCC2)c2ccccc21 [Example 53, 1-[(5-chloro-1,3-dimethyl-1H-pyrazol-4-yl)sulfonyl]-3-(1,2,3,6-tetrahydropyridin-4-yl)-1,3-dihydro-2H-benzimidazol-2-one]",7.55
12,"O=c1n(C2=CCNCC2)c2ccccc2n1S(=O)(=O)c1cccc2nsnc12 [Example 55, 1-(2,1,3-benzothiadiazol-4-ylsulfonyl)-3-(1,2,3,6-tetrahydropyridin-4-yl)-1,3-dihydro-2H-benzimidazol-2-one]",7.92

# Continued, values first:
row,pKi,Structure (SMILES)
1,7.34,"O=c1n(C2CCNCC2)c2ccccc2n1S(=O)(=O)c1c(Cl)nc2sccn12 [Example 32, 1-[(6-chloroimidazo[2,1-b][1,3]thiazol-5-yl)sulfonyl]-3-piperidin-4-yl-1,3-dihydro-2H-benzimidazol-2-one]"
2,7.64,"O=c1n(C2CCNCC2)c2ccccc2n1S(=O)(=O)c1c(Cl)nc2sc(Cl)cn12 [Example 33, 1-[(2,6-dichloroimidazo[2,1-b][1,3]thiazol-5-yl)sulfonyl]-3-piperidin-4-yl-1,3-dihydro-2H-benzimidazol-2-one]"
3,7.35,"O=c1n(C2CCNCC2)c2ccccc2n1S(=O)(=O)c1cccc2nsnc12 [Example 38, 1-[(2,1,3-benzothiadiazol-4-yl)sulfonyl]-3-piperidin-4-yl-1,3-dihydro-2H-benzimidazol-2-one]"
4,8.30,"O=c1n(C2=CCNCC2)c2ccccc2n1S(=O)(=O)c1ccc(Cl)s1 [Example 40, 1-[(5-chlorothien-2-yl)sulfonyl]-3-(1,2,3,6-tetrahydropyridin-4-yl)-1,3-dihydro-2H-benzimidazol-2-one]"
5,7.82,"O=c1n(C2=CCNCC2)c2ccccc2n1S(=O)(=O)c1cc(Cl)c(Cl)s1 [Example 42, 1-[(4,5-dichlorothien-2-yl)sulfonyl]-3-(1,2,3,6-tetrahydropyridin-4-yl)-1,3-dihydro-2H-benzimidazol-2-one]"
6,7.31,"Cc1c(S(=O)(=O)n2c(=O)n(C3=CCNCC3)c3ccccc32)sc2ccc(Cl)cc12 [Example 48, 1-[(5-chloro-3-methyl-1-benzothien-2-yl)sulfonyl]-3-(1,2,3,6-tetrahydropyridin-4-yl)-1,3-dihydro-2H-benzimidazol-2-one]"
7,7.72,"O=c1n(C2=CCNCC2)c2ccccc2n1S(=O)(=O)c1c(Cl)nc2ccccn12 [Example 51, 1-[(2-chloroimidazo[1,2-a]pyridin-3-yl)sulfonyl]-3-(1,2,3,6-tetrahydropyridin-4-yl)-1,3-dihydro-2H-benzimidazol-2-one]"
8,7.29,"Cc1noc(C)c1S(=O)(=O)n1c(=O)n(C2=CCNCC2)c2ccccc21 [Example 54, 1-[(3,5-dimethylisoxazol-4-yl)sulfonyl]-3-(1,2,3,6-tetrahydropyridin-4-yl)-1,3-dihydro-2H-benzimidazol-2-one]"
